2 molecules from ChEMBL document CHEMBL6096667, “Design, synthesis and biological evaluation of biaryl amide derivatives as modulators of multi-drug resistance” (Eur J Med Chem, 2025) can be followed below.

Bounds are passed on as bounds.

For data set [1], the system named is A2780/Taxol. Nature of the data set: Inhibition of cell proliferation of human Paclitaxel-resistant A2780/T cells at 1 uM incubated for 48 hrs in presence of PTX by MTT assay relative to control. Format: functional. In general terms: Tetrazolium dyes change colour on reduction, which living cells bring about.
The test system of data set [2] is A2780/Taxol. The data set can be described thus: Inhibition of cell proliferation of human Paclitaxel-resistant A2780/T cells at 0.1 uM incubated for 48 hrs in presence of PTX by MTT assay relative to control. Format: functional.
The test system of data set [3] is A2780/Taxol. The data set can be described thus: Inhibition of cell proliferation of human Paclitaxel-resistant A2780/T cells incubated for 48 hrs in presence of PTX by MTT assay. Format: functional, cell-based.
A short description of data set [4]: Inhibition of cell proliferation of human CDDP-resistant A549 cells by MTT assay. Format: functional, cell-based.
The subject of data set [5] is A2780/Taxol. Nature of the data set: Inhibition of cell proliferation of human Paclitaxel-resistant A2780/T cells at 10 uM incubated for 48 hrs in presence of PTX by MTT assay relative to control. It counts as functional.
Data set [6] has as its system A2780/Taxol. The data set can be described thus: Inhibition of cell proliferation of human Paclitaxel-resistant A2780/T cells at 0.01 uM incubated for 48 hrs in presence of PTX by MTT assay relative to control. It counts as functional.
Data set [7] can be described thus: Inhibition of cell proliferation of human A2780/CDDP cells by MTT assay. It counts as functional, cell-based.
For data set [8], the target named is T1, ATP-dependent translocase ABCB1 (Homo sapiens, UniProt P08183). The data set can be described thus: Binding affinity to CM5 sensor chip-immobilized human P-gp assessed as dissociation constant by SPR analysis. For orientation: Surface plasmon resonance follows binding to a sensor surface in real time, without labels.
Data set [9] deals with T1, ATP-dependent translocase ABCB1. Nature of the data set: Inhibition of P-gp-mediated drug efflux of Rh123 in human Paclitaxel-resistant A2780/T cells at 2 uM measured upto 120 mins by flow cytometry. It counts as cell-based. To be noted: paclitaxel-resistant a2780/t cell, 2 h. In general terms: Flow cytometry measures light scatter and fluorescence of single cells or particles in a stream.

In data set [10] the target is Multidrug resistance-associated protein 1 (Homo sapiens, UniProt P33527). The data set can be described thus: Inhibition of MRP1 in human Paclitaxel-resistant A2780/T cells at high concentration incubated for 48 hrs by Western blot analysis. It counts as cell-based. The settings on record: paclitaxel-resistant a2780/t cell.
Data set [11] relates to A2780/Taxol. Nature of the data set: Reversal of paclitaxel resistance in human Paclitaxel-resistant A2780/T cells by MTT assay. Format: functional, cell-based.
In data set [12] the test system is A2780/Taxol. The data set can be described thus: Induction of intracellular Rh123 accumulation in human Paclitaxel-resistant A2780/T cells incubated for 4 hrs by flow cytometry. Format: functional, cell-based. To be noted: dose 0.5-2 µM.
In data set [13] the test system is A2780/Taxol. The data set can be described thus: Reversal of paclitaxel resistance in human Paclitaxel-resistant A2780/T cells assessed as reversal fold by measuring ratio of paclitaxel IC50 to paclitaxel IC50 in presence of test compound at 1 uM incubated for 48 hrs by MTT assay. It counts as functional.
Data set [14] in a line: Reversal of paclitaxel resistance in human A2780/CDDP cells assessed as reversal fold by measuring ratio of paclitaxel IC50 to paclitaxel IC50 in presence of test compound by MTT assay. It counts as functional.
Data set [15] deals with T1, ATP-dependent translocase ABCB1. The data set can be described thus: Inhibition of P-gp in human Paclitaxel-resistant A2780/T cells incubated for 48 hrs by Western blot analysis. To be noted: paclitaxel-resistant a2780/t cell, 10 µM. It counts as cell-based.
Data set [16] deals with T2, Broad substrate specificity ATP-binding cassette transporter ABCG2 (Homo sapiens, UniProt Q9UNQ0).
T2 sequence (Q9UNQ0 whole entry): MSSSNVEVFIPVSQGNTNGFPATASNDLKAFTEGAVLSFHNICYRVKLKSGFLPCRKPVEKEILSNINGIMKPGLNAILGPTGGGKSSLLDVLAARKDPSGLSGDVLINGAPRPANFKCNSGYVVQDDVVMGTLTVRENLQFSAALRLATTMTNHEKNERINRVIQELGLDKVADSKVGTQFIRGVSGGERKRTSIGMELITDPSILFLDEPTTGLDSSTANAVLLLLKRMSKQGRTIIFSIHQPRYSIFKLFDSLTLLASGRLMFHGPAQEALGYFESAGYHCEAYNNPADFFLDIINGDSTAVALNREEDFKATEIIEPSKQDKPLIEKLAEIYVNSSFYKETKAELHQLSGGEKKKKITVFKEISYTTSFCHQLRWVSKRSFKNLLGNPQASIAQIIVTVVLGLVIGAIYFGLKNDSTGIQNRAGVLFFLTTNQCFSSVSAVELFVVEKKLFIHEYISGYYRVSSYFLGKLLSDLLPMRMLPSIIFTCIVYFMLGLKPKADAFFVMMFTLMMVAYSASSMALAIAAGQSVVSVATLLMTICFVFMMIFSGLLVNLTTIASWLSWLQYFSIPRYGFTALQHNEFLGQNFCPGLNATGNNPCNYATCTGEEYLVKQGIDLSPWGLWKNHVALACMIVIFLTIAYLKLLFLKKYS
Nature of the data set: Inhibition of ABCG2 in human Paclitaxel-resistant A2780/T cells at high concentration incubated for 48 hrs by Western blot analysis. Format: cell-based. To be noted: paclitaxel-resistant a2780/t cell.

Data set [17] is described as follows: Reversal of paclitaxel resistance in human CDDP-resistant A549 cells assessed as reversal fold by measuring ratio of paclitaxel IC50 to paclitaxel IC50 in presence of test compound by MTT assay. It counts as functional, CDDP-resistant A549 cell.

T1 sequence (P08183 whole entry): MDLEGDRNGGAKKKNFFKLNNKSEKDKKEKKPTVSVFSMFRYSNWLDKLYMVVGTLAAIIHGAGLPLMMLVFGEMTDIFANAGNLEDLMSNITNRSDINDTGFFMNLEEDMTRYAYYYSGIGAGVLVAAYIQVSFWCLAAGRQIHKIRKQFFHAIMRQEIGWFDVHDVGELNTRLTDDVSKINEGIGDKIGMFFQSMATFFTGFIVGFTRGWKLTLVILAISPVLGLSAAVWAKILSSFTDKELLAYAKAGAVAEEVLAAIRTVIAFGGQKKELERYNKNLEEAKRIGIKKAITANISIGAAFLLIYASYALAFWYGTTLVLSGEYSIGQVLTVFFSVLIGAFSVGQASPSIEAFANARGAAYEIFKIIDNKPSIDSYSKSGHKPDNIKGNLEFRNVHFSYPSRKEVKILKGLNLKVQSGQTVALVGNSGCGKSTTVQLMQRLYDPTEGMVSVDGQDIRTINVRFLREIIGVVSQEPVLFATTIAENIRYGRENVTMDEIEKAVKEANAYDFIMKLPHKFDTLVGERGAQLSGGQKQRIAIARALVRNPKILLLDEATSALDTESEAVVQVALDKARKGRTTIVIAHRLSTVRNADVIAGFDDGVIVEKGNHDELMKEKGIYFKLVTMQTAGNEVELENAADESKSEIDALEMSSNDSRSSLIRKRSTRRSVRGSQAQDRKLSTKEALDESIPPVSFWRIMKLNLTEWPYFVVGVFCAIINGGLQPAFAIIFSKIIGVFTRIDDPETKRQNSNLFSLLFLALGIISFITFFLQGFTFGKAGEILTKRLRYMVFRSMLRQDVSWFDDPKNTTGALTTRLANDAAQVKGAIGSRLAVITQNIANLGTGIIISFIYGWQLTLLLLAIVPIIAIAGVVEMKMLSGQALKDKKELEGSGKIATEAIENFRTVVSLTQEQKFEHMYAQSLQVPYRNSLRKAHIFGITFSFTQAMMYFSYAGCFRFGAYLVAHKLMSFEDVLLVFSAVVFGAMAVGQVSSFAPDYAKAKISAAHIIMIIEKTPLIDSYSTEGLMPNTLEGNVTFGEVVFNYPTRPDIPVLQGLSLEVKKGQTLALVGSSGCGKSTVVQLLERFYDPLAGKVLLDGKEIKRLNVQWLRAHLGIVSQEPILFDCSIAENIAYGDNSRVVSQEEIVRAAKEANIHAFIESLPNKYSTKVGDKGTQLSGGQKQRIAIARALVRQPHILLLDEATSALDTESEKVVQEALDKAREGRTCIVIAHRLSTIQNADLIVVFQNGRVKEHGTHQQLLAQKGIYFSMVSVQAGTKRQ
Sequence of Multidrug resistance-associated protein 1 (P33527 whole entry): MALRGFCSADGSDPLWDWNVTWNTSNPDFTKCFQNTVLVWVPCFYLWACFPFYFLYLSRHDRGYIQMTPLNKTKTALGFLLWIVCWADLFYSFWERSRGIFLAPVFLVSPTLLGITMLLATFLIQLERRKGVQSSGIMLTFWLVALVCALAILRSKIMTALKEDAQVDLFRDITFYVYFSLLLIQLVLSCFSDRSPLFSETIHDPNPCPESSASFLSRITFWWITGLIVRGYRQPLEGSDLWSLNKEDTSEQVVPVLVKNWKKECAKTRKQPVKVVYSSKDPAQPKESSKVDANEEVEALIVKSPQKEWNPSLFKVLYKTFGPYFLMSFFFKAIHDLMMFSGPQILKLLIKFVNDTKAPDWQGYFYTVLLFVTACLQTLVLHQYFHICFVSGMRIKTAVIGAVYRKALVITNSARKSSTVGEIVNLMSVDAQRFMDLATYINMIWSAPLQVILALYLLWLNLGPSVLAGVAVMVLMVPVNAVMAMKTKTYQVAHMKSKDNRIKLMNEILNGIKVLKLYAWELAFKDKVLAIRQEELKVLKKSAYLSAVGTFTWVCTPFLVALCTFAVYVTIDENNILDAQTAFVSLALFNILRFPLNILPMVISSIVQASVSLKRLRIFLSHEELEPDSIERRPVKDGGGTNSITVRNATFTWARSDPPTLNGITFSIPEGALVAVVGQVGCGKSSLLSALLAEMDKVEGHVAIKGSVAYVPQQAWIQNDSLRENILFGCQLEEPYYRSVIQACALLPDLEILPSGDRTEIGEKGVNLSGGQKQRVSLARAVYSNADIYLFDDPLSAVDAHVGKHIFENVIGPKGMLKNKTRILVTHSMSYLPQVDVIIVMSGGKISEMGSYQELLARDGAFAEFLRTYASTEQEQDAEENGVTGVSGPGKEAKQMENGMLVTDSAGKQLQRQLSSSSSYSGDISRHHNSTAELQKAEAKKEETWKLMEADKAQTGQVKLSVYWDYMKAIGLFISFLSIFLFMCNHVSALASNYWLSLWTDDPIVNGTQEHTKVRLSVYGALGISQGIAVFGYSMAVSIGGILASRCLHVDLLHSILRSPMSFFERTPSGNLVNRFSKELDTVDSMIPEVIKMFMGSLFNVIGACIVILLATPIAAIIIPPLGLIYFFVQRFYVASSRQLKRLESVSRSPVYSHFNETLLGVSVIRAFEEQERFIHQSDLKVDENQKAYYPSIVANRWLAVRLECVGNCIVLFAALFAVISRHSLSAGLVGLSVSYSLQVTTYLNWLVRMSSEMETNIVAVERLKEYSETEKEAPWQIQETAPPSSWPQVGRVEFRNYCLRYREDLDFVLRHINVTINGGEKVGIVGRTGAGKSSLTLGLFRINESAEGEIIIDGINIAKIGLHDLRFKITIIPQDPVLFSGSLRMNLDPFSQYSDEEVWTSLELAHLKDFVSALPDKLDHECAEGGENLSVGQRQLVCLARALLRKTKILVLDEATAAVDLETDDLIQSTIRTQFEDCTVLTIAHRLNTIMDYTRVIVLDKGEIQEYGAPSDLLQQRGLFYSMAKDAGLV

With `CC(=O)O[C@H]1C(=O)[C@@]2(C)[C@H]([C@H](OC(=O)c3ccccc3)[C@]3(O)C[C@H](OC(=O)[C@H](O)[C@@H](NC(=O)c4ccccc4)c4ccccc4)C(C)=C1C3(C)C)[C@]1(OC(C)=O)CO[C@@H]1C[C@@H]2O` [PACLITAXEL], the inhibition at 1 µM with A2780/Taxol [1] worked out at 9%. Also, the inhibition at 0.1 µM in the data set with A2780/Taxol [2] stood at 35%. The results for the 50% inhibitory concentration (IC50) (in the data set with A2780/Taxol [3]; in [4]; in data set [7]) were 14.1 µM, 27.2 µM and 55.2 µM, respectively. Moreover, the inhibition at 10 µM in the data set on A2780/Taxol [5] was 35%. Moreover, the inhibition at 0.01 µM in the data set with A2780/Taxol [6] amounted to 9%.
For `COc1cc(-c2ccc(CNC(=O)c3cn(C)c4ccccc34)nc2)cc(OC)c1OC`, the inhibition at 1 µM in the data set on A2780/Taxol [1] came to 55%. Further, the Kd in [8] is 0.798 µM. The “inhibition (INH)” value in [9] is “Active”; in data set [10], “Active”; in data set [15] it was “Dose-dependent-effect”; in [16], “Not_active”. For the same molecule, in the data set on A2780/Taxol [3], the concentration for half-maximal inhibition (IC50) was greater than 50 µM. Further, the half-maximal effective concentration (EC50) in the data set with A2780/Taxol [11] is 0.088 µM. In addition, the inhibition at 10 µM in the data set with A2780/Taxol [5] came to 88%. For the same molecule, in the data set on A2780/Taxol [12], the Activity entry was “Dose-dependent-effect; Activity Was Observed Superior To Vrp”. For the same molecule, the “Ratio IC50” value in the data set on A2780/Taxol [13] was determined as 156; in [14], 11; in data set [17], 7.

The term inhibition denotes the percentage by which the read-out fell short of the control. In general, IC50 refers to the midpoint of a concentration-inhibition curve. As usually defined, the Kd is the free concentration of one partner at which half of the binding sites on the other are occupied at equilibrium, for simple one-to-one binding. The EC50 is the midpoint of the concentration-response curve.
